Our source for the IC50 values is patent US10821115B2, “Compounds that inhibit Mcl-1 protein” (priority 2017, dated 2020).

Read-outs that look alike come from different tables or passages of the source.

Test [1] relates to human multiple myeloma cell line, OPM-2. As to the kind of experiment: Cell viability assay (OPM-2 10 FBS), CellTiter-Glo. In kind it is cell-based. Put shortly:
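OPM-2 cells at 3000 cells/well in RPMI 1640 with 10% FBS were exposed to serially diluted compounds for 16 h at 37 °C, 5% CO2.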

For test [2], the target named is recombinant human Mcl-1 (residues 171-327) / Bim interaction (Homo sapiens (Human), UniProt Q07820). As to the kind of experiment: biochemical. In kind it is binding. The conditions noted are these: read-out: Mcl-1 HTRF IC50.
Chain of recombinant human Mcl-1 (residues 171-327) / Bim interaction (Q07820 171-327): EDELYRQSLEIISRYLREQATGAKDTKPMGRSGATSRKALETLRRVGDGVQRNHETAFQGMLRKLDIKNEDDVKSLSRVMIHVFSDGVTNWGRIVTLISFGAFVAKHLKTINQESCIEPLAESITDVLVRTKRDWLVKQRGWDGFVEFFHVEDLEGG
Where [3] appears, read: Homo sapiens, OPM-2, 16 h, read-out: OPM-2 10% FBS IC50 IP, OPM-2 cells, 10% FBS, 16 h, CellTiter-Glo.
Setting [4] is: TR-FRET, Mcl-1(171-327) / biotin-Bim (51-76).
Setting [5] is: Homo sapiens, OPM-2, 16 h, read-out: OPM-2 10% FBS IC50 IP, OPM-2 cells, 10% FBS, 16 h incubation.
Setting [6] is: 0.1 nM Mcl-1(171-327), 0.05 nM biotin-Bim (51-76).
[7] abbreviates: read-out: OPM-2 10% FBS IC50 IP, OPM-2 cells, 10% FBS, 16 h, CellTiter-Glo.

A word on the IC50: it is the concentration that inhibits the measured activity by half. Regarding `COCCN(C)C1=NO[C@@]2(CCC[C@H](C)[C@@H](C)S(=O)(=O)NC(=O)c3ccc4c(c3)N(C[C@@H]3CC[C@H]32)C[C@@]2(CCCc3cc(Cl)ccc32)CO4)C1` [Example 100155, (1S,3′R,6′R,7′S,11′S,12′R)-6-chloro-3″- ((2-methoxyethyl)(methyl)amino)-11′,12′-dimethyl-3,4-dihydro-2H,4″H,15′H-dispiro[naphthalene-1,22′-[20]oxa[13]thia[1,14]diazatetracyclo [14.7.2.0~3,6~.0~19,24~]pentacosa[16,18,24]triene-7′,5″-[1,2]oxazol]-15′-one 13′,13′-dioxide], the results for the IC50 in test [1] (setting [3]) and in test [2] (setting [4]) were 332 nM and 0.225 nM, respectively.

Take `CCOC(=O)COC[C@]1(OCC(=O)OCC)CCCC[C@@H](CC)S(=O)(=O)NC(=O)c2ccc3c(c2)N(C[C@@H]2CC[C@H]21)C[C@@]1(CCCc2cc(Cl)ccc21)CO3` [Example 100042, ethyl (((1S,3′R,6′R,7′S,12′R)-6-chloro-7′-(2-ethoxy-2-oxoethoxy)-12′-ethyl-13′,13′-dioxido-15′-oxo-3,4-dihydro-2H-spiro[naphthalene-1,22′-[20]oxa[13]thia[1,14]diazatetracyclo [14.7.2.0~3,6~.0~19,24~]pentacosa[16,18,24]trien]-7′-yl)methoxy)acetate]: the IC50 in test [1] (setting [3]) was found to be 2220 nM; in test [2] (setting [4]), 4.86 nM.

For the molecule `COCC[C@@H]1[C@@H](C)C/C=C/[C@@](CN2CCN(C3(C)COC3)CC2)(OC)[C@@H]2CC[C@H]2CN2C[C@@]3(CCCc4cc(Cl)ccc43)COc3ccc(cc32)C(=O)NS1(=O)=O` [Example 192, (1S,3′R,6′R,7′R,8′E,11′S,12′R)-6-chloro-7′-methoxy-12′-(2-methoxyethyl)-11′-methyl-7′-((4-(3-methyl-3-oxetanyl)-1-piperazinyl)methyl)-3,4-dihydro-2H,15′H-spiro[naphthalene-1,22′-[20]oxa[13]thia[1,14]diazatetracyclo [14.7.2.0~3,6~.0~19,24~]pentacosa[8,16,18,24]tetraen]-15′-one 13′,13′-dioxide], the IC50 in test [1] (setting [5]) was 65 nM; in test [2] (setting [6]), 0.078 nM.

With `C[C@@H]1[C@@H](C)C/C=C/[C@@](O)(C[S@@+](C)[O-])[C@@H]2CC[C@H]2CN2C[C@@]3(CCCc4cc(Cl)ccc43)COc3ccc(cc32)C(=O)NS1(=O)=O` (stereo in doubt) [Example 100075], the results for the IC50 in test [1] (setting [7]) and in test [2] (setting [4]) were 1820 nM and 0.671 nM, respectively.

As for `CO[C@@]1(CCCO)/C=C/C[C@H](C)[C@@H](C)S(=O)(=O)NC(=O)c2ccc3c(c2)N(C[C@@H]2CC[C@H]21)C[C@@]1(CCCc2cc(Cl)ccc21)CO3` [Example 100178, (1S,3′R,6′R,7′S,8′E,11′S,12′R)-6-chloro-7′-(3-hydroxypropyl)-7′-methoxy-11′,12′-dimethyl-3,4-dihydro-2H,15′H-spiro[naphthalene-1,22′-[20]oxa[13]thia[1,14]diazatetracyclo [14.7.2.0~3,6~.0~19,24~]pentacosa[8,16,18,24]tetraen]-15′-one 13′,13′-dioxide], the IC50 worked out at 237 nM in test [1] (setting [7]) and 0.432 nM in test [2] (setting [4]).

As to `CO[C@@]1(CN2CCC3(CCOC3)CC2)/C=C/C[C@H](C)[C@@H](C)S(=O)(=O)NC(=O)c2ccc3c(c2)N(C[C@@H]2CC[C@H]21)C[C@@]1(CCCc2cc(Cl)ccc21)CO3` [Example 265, (1S,3′R,6′R,7′S,8′E,11′S,12′R)-6-chloro-7′-methoxy-11′,12′-dimethyl-7′-(2-oxa-8-azaspiro[4.5]dec-8-ylmethyl)-3,4-dihydro-2H,15′H-spiro[naphthalene-1,22′-[20]oxa[13]thia[1,14]diazatetracyclo [14.7.2.0~3,6~.0~19,24~]pentacosa[8,16,18,24]tetraen]-15′-one 13′,13′-dioxide], the IC50 in test [1] (setting [5]) was 578 nM; in test [2] (setting [6]), 0.423 nM.

Consider `CO[C@]1(CN2C[C@@H](C)N(C)[C@@H](C)C2)/C=C/C[C@H](C)[C@@H](C)S(=O)(=O)NC(=O)c2ccc3c(c2)N(C[C@@H]2CC[C@H]21)C[C@@]1(CCCc2cc(Cl)ccc21)CO3` [Example 336, (1S,3′R,6′R,7′R,8′E,11′S,12′R)-6-chloro-7′-methoxy-11′,12′-dimethyl-7′-(((3R,5S)-3,4,5-trimethyl-1-piperazinyl)methyl)-3,4-dihydro-2H,15′H-spiro[naphthalene-1,22′-[20]oxa[13]thia[1,14]diazatetracyclo [14.7.2.0~3,6~.0~19,24~]pentacosa[8,16,18,24]tetraen]-15′-one 13′,13′-dioxide], for which the IC50 in test [1] (setting [5]) was 51 nM; in test [2] (setting [6]) it was 0.085 nM.

As for `COCC[C@]1(OC)/C=C/C[C@H](C)[C@@H](C)S(=O)(=O)NC(=O)c2ccc3c(c2)N(C[C@@H]2CC[C@H]21)C[C@@]1(CCCc2cc(Cl)ccc21)CO3` [Example 100369, (1S,3′R,6′R,7′S,8′E,11′S,12′R)-6-chloro-7′-methoxy-7′-(2-methoxyethyl)-11′,12′-dimethyl-3,4-dihydro-2H,15′H-spiro[naphthalene-1,22′-[20]oxa[13]thia[1,14]diazatetracyclo [14.7.2.0~3,6~.0~19,24~]pentacosa[8,16,18,24]tetraen]-15′-one 13′,13′-dioxide], the IC50 is 9920 nM in test [1] (setting [3]) and 2.83 nM in test [2] (setting [4]).

Take `C[C@@H]1[C@@H](C)C/C=C/[C@@](O)([C@@H]2CCN(C)C2=O)[C@@H]2CC[C@H]2CN2C[C@@]3(CCCc4cc(Cl)ccc43)COc3ccc(cc32)C(=O)NS1(=O)=O` [Example 100109, (1S,3′R,6′R,7′S,8′E,11′S,12′R)-6-chloro-7′-hydroxy-11′,12′-dimethyl-7′-((3S)-1-methyl-2-oxo-3-pyrrolidinyl)-3,4-dihydro-2H,15′H-spiro[naphthalene-1,22′-[20]oxa[13]thia[1,14]diazatetracyclo [14.7.2.0~3,6~.0~19,24~]pentacosa[8,16,18,24]tetraen]-15′-one 13′,13′-dioxide]: the 50% inhibitory concentration (IC50) in test [1] (setting [7]) is 2140 nM; in test [2] (setting [4]), 0.486 nM.

`CCO[C@@]1(CN2CCC(N(C)C)CC2)/C=C/C[C@H](C)[C@@H](C)S(=O)(=O)NC(=O)c2ccc3c(c2)N(C[C@@H]2CC[C@H]21)C[C@@]1(CCCc2cc(Cl)ccc21)CO3` [Example 110, (1S,3′R,6′R,7′S,8′E,11′S,12′R)-6-chloro-7′-((4-(dimethylamino)-1-piperidinyl)methyl)-7′-ethoxy-11′,12′-dimethyl-3,4-dihydro-2H,15′H-spiro[naphthalene-1,22′-[20]oxa[13]thia[1,14]diazatetracyclo [14.7.2.0~3,6~.0~19,24~]pentacosa[8,16,18,24]tetraen]-15′-one 13′,13′-dioxide]: the values for the IC50 in test [1] (setting [5]) and in test [2] (setting [6]) were 1720 nM and 0.505 nM, respectively.

With `C[C@@H]1[C@@H](C)C/C=C/[C@](O)(c2ccncc2F)[C@@H]2CC[C@H]2CN2C[C@@]3(CCCc4cc(Cl)ccc43)COc3ccc(cc32)C(=O)NS1(=O)=O` [Example 100368, (1S,3′R,6′R,7′R,8′E,11′S,12′R)-6-chloro-7′-(3-fluoro-4-pyridinyl)-7′-hydroxy-11′,12′-dimethyl-3,4-dihydro-2H,15′H-spiro[naphthalene-1,22′-[20]oxa[13]thia[1,14]diazatetracyclo [14.7.2.0~3,6~.0~19,24~]pentacosa[8,16,18,24]tetraen]-15′-one 13′,13′-dioxide], the results for the IC50 in test [1] (setting [3]) and in test [2] (setting [4]) were 611 nM and 0.377 nM, respectively.

With `C[C@@H]1[C@@H](C)CCC[C@@](O)(COS(C)(=O)=O)[C@@H]2CC[C@H]2CN2C[C@@]3(CCCc4cc(Cl)ccc43)COc3ccc(cc32)C(=O)NS1(=O)=O` [Example 100271, ((1S,3′R,6′R,7′S,11′S,12′R)-6-chloro-7′-hydroxy-11′,12′-dimethyl-13′,13′-dioxido-15′-oxo-3,4-dihydro-2H-spiro[naphthalene-1,22′-[20]oxa[13]thia[1,14]diazatetracyclo [14.7.2.0~3,6~.0~19,24~]pentacosa[16,18,24]trien]-7′-yl)methyl methanesulfonate], the IC50 was determined as 6120 nM in test [1] (setting [7]) and 2.48 nM in test [2].

On to `CO[C@]1(CN2CCN(C3COC3)CC2)/C=C/[C@H](C)[C@H](C)CS(=O)(=O)NC(=O)c2ccc3c(c2)N(C[C@@H]2CC[C@H]21)C[C@@]1(CCCc2cc(Cl)ccc21)CO3` [Example 159, (1S,3′R,6′R,7′R,8′E,10′S,11′S)-6-chloro-7′-methoxy-10′,11′-dimethyl-7′-((4-(3-oxetanyl)-1-piperazinyl)methyl)-3,4-dihydro-2H,15′H-spiro[naphthalene-1,22′-[20]oxa[13]thia[1,14]diazatetracyclo [14.7.2.0~3,6~.0~19,24~]pentacosa[8,16,18,24]tetraen]-15′-one 13′,13′-dioxide], for which the IC50 was determined as 79 nM in test [1] (setting [5]) and 0.096 nM in test [2] (setting [6]).

Take `CO[C@@]1(CN2CCN(Cc3noc(C)n3)CC2)/C=C/C[C@H](C)[C@@H](C)S(=O)(=O)NC(=O)c2ccc3c(c2)N(C[C@@H]2CC[C@H]21)C[C@@]1(CCCc2cc(Cl)ccc21)CO3` [Example 316, (1S,3′R,6′R,7′S,8′E,11′S,12′R)-6-chloro-7′-methoxy-11′,12′-dimethyl-7′-((4-((5-methyl-1,2,4-oxadiazol-3-yl)methyl)-1-piperazinyl)methyl)-3,4-dihydro-2H,15′H-spiro[naphthalene-1,22′-[20]oxa[13]thia[1,14]diazatetracyclo [14.7.2.0~3,6~.0~19,24~]pentacosa[8,16,18,24]tetraen]-15′-one 13′,13′-dioxide]: the IC50 in test [1] (setting [5]) worked out at 47 nM; in test [2] (setting [6]), 0.166 nM.
